Measurements: US6949585B2, “Cyclooctanone derivatives and cyclodecanone derivative, and use thereof” (Eisai Co., Ltd., priority 2001, dated 2005)

Columns and labels:
Format in all cases: cell-based
TNF-α production = TNF-α production by LPS-stimulated human peripheral blood monocytes (ELISA); settings: LPS 10 ng/ml, 18 h, compound 0.1-100 μM
Method: (§1) TNF-α and IL-6 production inhibitory activity of the compound of the present invention was evaluated by determining the amounts of TNF-α and IL-6 produced by the human peripheral blood monocyte stimulated with lipopolysaccharide(LPS). Briefly, human peripheral blood monocyte fraction was isolated from the peripheral venous blood from healthy male volunteers by density gradient centrifugation with Ficoll-Paque (Pharmacia). The monocytes were suspended in RPMI 1640 medium (Gibco BRL) containing 10% FCS and seeded at 5×10^5 cell/160 μl in a 96-well plate.
(§2) The present compound was added to the monocytes cultured and the mixture was left at 37° C. for thirty minutes. Then the monocytes were stimulated by adding LPS (Sigma) at a final concentration of 10 ng/ml and left 37° C. for eighteen hours. For control, the cells were used wherein LPS was added to the cell at a final concentration of 10 ng/ml without the present compound.
(§3) The amount of each of TNF-α and IL-6, which were released in the culture supernatant, was measured using an ELISA kit (R & D). The inhibitory rate (%) of TNF-α and IL-6 production as compared to control was calculated using the following formula from the amounts of TNF-α and […] thus measured: [formula]
(§4) In addition, the concentration of the present compound to inhibit 50% (IC50) was calculated by plotting the inhibitory rate (%) of IL-6 and TNF-α production obtained by varying a final concentration of the present compound of from 0.1 μM to 100 μM.

IL-2 production = IL-2 production by PHA-stimulated human peripheral lymphocytes (ELISA); settings: PHA 10 μl/ml, 48 h, compound 0.1-100 μM
Method: Human peripheral lymphocytes were stimulated with mitogen (PHA) to induce IL-2 production. The amount of IL-2 produced was measured to evaluate the inhibitory effect of the present compound. Briefly, human peripheral blood monocyte fraction was isolated in a manner similar to Test Example 1.
The monocytes were suspended in RPM 1640 medium (Gibco BRL) containing 10% FCS and seeded in a petri dish and left at 37° C. for an hour. Then, the cells (lymphocytes) which were not attached to the wall of the petri desh were isolated by centrifugation. The lymphocytes collected were suspended in the medium and seeded at 5×10^5 cell/160 μl in a 96-well plate.
The present compound was added to the lymphocytes cultured and the mixture was left at 37° C. for thirty minutes. Then, the cells were stimulated by adding PHA (Difco) at a final concentration of 10 μl/ml and left at 37° C. for forty eight hours. For control, the cells were used wherein PHA was added to the cell at a final concentration of 10 μl/ml without the present compound.
The amount of IL-2 which was released in the culture supernatant was measured using an ELISA kit (BioSource International). The inhibitory rate (%) of IL-2 production as compared to control was calculated using the following formula from IL-2 amounts thus measured: [formula]
In addition, the concentration of the present compound to inhibit 50% (IC50) was calculated by plotting the inhibitory rate (%) of IL-2 production obtained by varying a final concentration of the present compound of from 0.1 μM to 100 μM.

IL-6 production = IL-6 production by LPS-stimulated human peripheral blood monocytes (ELISA); settings: Monocyte, LPS 10 ng/ml, 18 h, compound 0.1-100 μM
Method: as §1, §2, §3, §4

Compound	IC50 (TNF-α production; Monocyte) [µM]	IC50 (IL-2 production; Lymphocyte) [µM]	IC50 (IL-6 production) [µM]	IC50 (TNF-α production) [µM]	IC50 (IL-2 production) [µM]
O=C1C=CCC(CCc2ccccc2)C[C@@H](O)[C@H]1O (mixture of isomers) [Example 84 (b), (7RS,8RS)-7,8-dihydroxy-5-phenethyl-2-cycloocten-1-one]	8.8	3.6			
COc1ccc(C(=O)OC2CC/C=C\C(=O)[C@H](O)[C@H](O)CC2)c(O)c1 (mixture of isomers) [Example 93, Z-(7RS,8RS)-7,8-dihydroxy-6-oxo-4-cyclodecenyl (2-hydroxy-4-methoxy)benzoate]				1.8	2
O=C1C=CCC(Cc2ccccc2)CCC1 (centres unmarked) [Example 4, 5-Benzyl-2-cycloocten-1-one]	13.6		23.3		
O=C1C=CCC(CCc2ccccc2)CCC1 (centres unmarked) [Example 5, 5-Phenethyl-2-cycloocten-1-one]	13.7	1.7	21.6		
O=C1C=CCC(CCc2cccc(O)c2)CCC1 (centres unmarked) [Example 18, 5-[2-(3-Hydroxyphenyl)ethyl]-2-cycloocten-1-one]	5.9	2.1	6.8		
O=C1/C=C\CCC(Cc2ccccc2)CCCC1 (centres unmarked) [Example 22 (a), Z-6-benzyl-2-cyclodecen-1-one]	28.1	2.6			
COc1ccc(C(=O)OC2CC=CC(=O)CCC2)c(O)c1 (centres unmarked) [Example 47, 5-Oxo-3-cyclooctenyl (2-hydroxy-4-methoxy)benzoate]				0.5	0.14

Now from value to molecule, other results behind:

IC50 (TNF-α production; Monocyte) [µM]	IC50 (IL-2 production; Lymphocyte) [µM]	IC50 (IL-6 production) [µM]	Compound	IC50 (TNF-α production) [µM]	IC50 (IL-2 production) [µM]
2.2	64.9		O=C1C=CCC(CCc2ccccc2O)C[C@@H](O)[C@H]1O (mixture of isomers) [Example 85 (a), (7RS,8RS)-7,8-dihydroxy-5-[2-(2-hydroxyphenyl)ethyl]-2-cycloocten-1-one]		
12.4	3		O=C1/C=C\CCC(Cc2ccccc2)CC[C@@H](O)[C@H]1O (mixture of isomers) [Example 87, Z-(9RS,10RS)-6-benzyl-9,10-dihydroxy-2-cyclodecen-1-one]		
3.4			O=C(OC1CC=CC(=O)[C@H](O)[C@H](O)C1)c1ccccc1O (mixture of isomers) [Example 90 (a), (6RS,7RS)-6,7-dihydroxy-5-oxo-3-cyclooctenyl 2-hydroxybenzoate]		
1.7	1.2		O=C(OC1CC/C=C\C(=O)[C@H](O)[C@H](O)CC1)c1ccccc1O (mixture of isomers) [Example 92, Z-(7RS,8RS)-7,8-dihydroxy-6-oxo-4-cyclodecenyl (2-hydroxy)benzoate]		
